Measurements from patent US8871681B2, “Herbicidal compositions comprising 4-amino-3-chloro-5-fluoro-6-(4-chloro-2-fluoro-3-methoxyphenyl) pyridine-2-carboxylic acid or a derivative thereof and certain sulfonylureas” (Dow AgroSciences LLC, priority 2012, dated 2014).
Where two headings read alike, the source gives them in different places.

Experiments:
[1] = tested on: ISCRU (Ischaemum rugosum, saramollagrass); experiment: Postemergence foliar-applied weed control, direct seeded rice, greenhouse (Example I); format: in vivo, Ischaemum rugosum Salisb.
Source text: (§1) Seeds or nutlets of the desired test plant species were planted in a soil matrix prepared by mixing a loam or sandy loam soil (e.g., 28.6 percent silt, 18.8 percent clay, and 52.6 percent sand, with a pH of about 5.8 and an organic matter content of about 1.8 percent) and calcareous grit in an 80 to 20 ratio. The soil matrix was contained in plastic pots with a volume of 1 quart and a surface area of 83.6 square centimeters (cm^2). When required to ensure good germination and healthy plants, a fungicide treatment and/or other chemical or physical treatment was applied. The plants were grown for 8-22 days in a greenhouse with an approximate 14 h photoperiod which was maintained at about 29° C. during the day and 26° C. during the night. Nutrients (Peters Excel® 15-5-15 5-Ca 2-Mg and iron chelate) were applied in the irrigation solution as needed and water was added on a regular basis. Supplemental lighting was provided with overhead metal halide 1000-Watt lamps as necessary. The plants were employed for testing when they reached the first through fourth true leaf stage.
(§2) Treatments consisted of the acid or esters of 4-amino-3-chloro-5-fluoro-6-(4-chloro-2-fluoro-3-methoxy-phenyl)pyridine-2-carboxylic acid (Compound A), each formulated as an SC, and various herbicidal components alone and in combination. Forms of compound A were applied on an acid equivalent basis.
Other herbicidal components were applied on an active ingredient basis and included acetolactate synthase (ALS)-inhibiting herbicides (sulfonylurea chemical class) azimsulfuron formulated as Gulliver®, bensulfuron-methyl formulated as Londax® 60DF, cyclosulfamuron (technical material), ethoxysulfuron formulated as Sunrice® 15 WDG, flazasulfuron formulated as Katana®, flucetosulfuron formulated as Sukedachi® 1KG G, foramsulfuron formulated as Option®, imazosulfuron formulated as Brazzos® WG, iodosulfuron-methyl-sodium formulated as Hussar®, metsulfuron-methyl formulated as Lorate®, nicosulfuron formulated as Accent®, orthosulfamuron formulated as Strada® WG, primisulfuron-methyl (technical material), propyrisulfuron formulated as Zeta One®, rimsulfuron formulated as Matrix® WG, sulfometuron-methyl formulated as Oust®, and trifloxysulfuron-sodium formulated as Monument® 75WG.
(§3) Treatment requirements were calculated based upon the rates being tested, the concentration of active ingredient or acid equivalent in the formulation, and a 12 mL application volume at a rate of 187 L/ha.
For treatments comprised of formulated compounds, measured amounts of compounds were placed individually in 25 mL glass vials and diluted in a volume of 1.25% (v/v) Agri-Dex® crop oil concentrated to obtain 12× stock solutions. […] Application solutions were prepared by adding an appropriate amount of each stock solution (e.g., 1 mL) and diluted to the appropriate final concentrations with the addition of 10 mL of an aqueous mixture of 1.25% (v/v) crop oil concentrate so that the final spray solutions contained 1.25+/−0.05% (v/v) Agrcrop oil concentrate.
For treatments comprised of formulated and technical compounds, weighed amounts of the technical materials were placed individually in 25 mL glass vials and dissolved in a volume of 97:3 v/v acetone/DMSO to obtain 12× stock solutions, and measured amounts of the formulated compounds were placed individually in 25 mL glass vials and diluted in a volume of 1.25% (v/v) crop oil concentrate to obtain 12× stock solutions. […] Application solutions were prepared by adding an appropriate amount of each stock solution (e.g., 1 mL) and diluted to the appropriate final concentrations with the addition of an appropriate amount of an aqueous mixture of 1.5% (v/v) crop oil concentrate so that the final spray solutions contained 1.25% (v/v) crop oil concentrate. […]

[2] = tested on: BRAPP (Brachiaria platyphylla, broadleaf signalgrass); experiment: as above; format: in vivo, Brachiaria platyphylla (Griseb.) Nash; conditions: Urochloa platyphylla, post-emergence
In short: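 Greenhouse-grown plants (14 h photoperiod, 29/26 °C day/night) at first to fourth true leaf stage sprayed overhead at 187 L/ha with Compound A (acid equivalent basis) alone or mixed with sulfonylurea ALS inhibitors (active ingredient basis). Final spray contained 1.25% v/v crop oil concentrate; controls received solvent blank.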

[3] = tested on: CIRAR (Cirsium arvense, Canada thistle); experiment: Post-emergence foliar-applied weed control in cereal crops, greenhouse (Example III); format: in vivo, Cirsium arvense (L.) Scop.
In short: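 Greenhouse plants at the second or third true leaf stage (14 hour photoperiod, about 18/17 °C) were track-sprayed at 187 L/ha with Compound A SC, a second cereal herbicide, or their combinations, using 1.25% v/v crop oil concentrate. Injury was scored visually at 20-22 days against solvent-blank controls on a 0–100% scale. Expected mixture effects were calculated with Colby's equation.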

[4] = tested on: SCPJU (Schoenoplectus juncoides, Japanese bulrush); experiment: Postemergence foliar-applied weed control, direct seeded rice, greenhouse (Example I); format: in vivo, Schoenoplectus juncoides (Roxb.) Palla; conditions: 21 DAA
Source text: as §1
as §2, with “basis. […]” for “basis.”
as §3
For treatments comprised of formulated compounds, measured amounts of compounds were placed individually in 25 mL glass vials and diluted in a volume of 1.25% (v/v) Agri-Dex® crop oil concentrated to obtain 12× stock solutions. […]
For treatments comprised of formulated and technical compounds, weighed amounts of the technical materials were placed individually in 25 mL glass vials and dissolved in a volume of 97:3 v/v acetone/DMSO to obtain 12× stock solutions, and measured amounts of the formulated compounds were placed individually in 25 mL glass vials and diluted in a volume of 1.25% (v/v) crop oil concentrate to obtain 12× stock solutions. […]

`COC(=O)c1ccccc1CS(=O)(=O)NC(=O)Nc1nc(OC)cc(OC)n1` [Bensulfuron-methyl, methyl 2-[[[[[(4,6-dimethoxy-2-pyrimidinyl)amino]carbonyl]amino]sulfonyl]methyl]benzoate, reference compound] was tested, and the “Visual Weed Control (%) Obs” value ([1]; 20 DAA, 70 gai/ha) was 30%, the pest or weed control at 4.38 g/ha ([2]; 504 h, 21 DAA, 4.38 gai/ha, read-out: Visual Weed Control (%) Obs) was 0% and the pest or weed control at 8.75 g/ha ([2]; 504 h, 21 DAA, 8.75 gai/ha, read-out: Visual Weed Control (%) Obs) was 0%. For the same compound, the pest or weed control at 17.5 g/ha ([2]; 504 h, 21 DAA, 17.5 gai/ha, read-out: Visual Weed Control (%) Obs) was 0%, the pest or weed control at 17.5 g/ha ([2]; 504 h, 21 DAA, 17.5 gai/ha, second series, read-out: Visual Weed Control (%) Obs) was 0% and the pest or weed control at 35 g/ha ([2]; 504 h, 21 DAA, 35 gai/ha, second series, read-out: Visual Weed Control (%) Obs) was 0%.

For `COc1c(Cl)ccc(-c2nc(C(=O)O)c(Cl)c(N)c2F)c1F` [Compound A Acid, 4-amino-3-chloro-5-fluoro-6-(4-chloro-2-fluoro-3-methoxy-phenyl)pyridine-2-carboxylic acid], the pest or weed control at 4.38 g/ha ([2]; 480 h, 20 DAA, 4.38 gae/ha, read-out: Visual Weed Control (%) Obs) was 10%, the pest or weed control at 4.38 g/ha ([2]; 504 h, 21 DAA, 4.38 gae/ha, read-out: Visual Weed Control (%) Obs) was 40% and the pest or weed control at 4.38 g/ha ([2]; 504 h, 21 DAA, 4.38 gae/ha, second series, read-out: Visual Weed Control (%) Obs) was 50%.

`COc1c(Cl)ccc(-c2nc(C(=O)OCc3ccccc3)c(Cl)c(N)c2F)c1F` [Compound A Benzyl Ester] was tested, and the pest or weed control at 8.75 g/ha ([3]; Cirsium arvense, post-emergence, read-out: Weed Control CIRAR Obs) was 40%, the “Weed Control CIRAR Obs” value ([3]; Table 53, foliar-applied, after 20-22 days, 8.75 gai/ha alone) was 40% and the “Weed Control CIRAR Obs” value ([3]; Table 54, foliar-applied, after 20-22 days, 8.75 gai/ha alone) was 40%. The “Weed Control CIRAR Obs” value ([3]; Table 55, foliar-applied, after 20-22 days, 8.75 gai/ha alone) was 40%, the “Weed Control CIRAR Obs” value ([3]; Table 56, foliar-applied, after 20-22 days, 8.75 gai/ha alone) was 40% and the “Weed Control CIRAR Obs” value ([3]; Table 57, foliar-applied, after 20-22 days, 8.75 gai/ha Compound A Benzyl Ester alone) was 40%. For the same compound, the “Weed Control CIRAR Obs” value ([3]; Table 58 (cereal), foliar-applied, after 20-22 days, 8.75 gai/ha alone) was 40%, the “Weed Control CIRAR Obs” value ([3]; Table 59 (cereal), foliar-applied, after 20-22 days, 8.75 gai/ha alone) was 40% and the “Visual Weed Control (%) Obs” value ([4]; 4.38 gae/ha) was 40%. For the same compound, the “Visual Weed Control (%) Obs” value ([1]; 20 DAA, 6 gae/ha) was 30%, the “Visual Weed Control (%) Obs” value ([1]; 20 DAA, 24 gae/ha) was 35% and the “Visual Weed Control (%) Obs” value ([1]; 21 DAA, 8 gae/ha) was 20%. For the same compound, the “Visual Weed Control (%) Obs” value ([1]; 21 DAA, 16 gae/ha) was 0%, the pest or weed control at 4.38 g/ha ([2]; 480 h, read-out: Visual Weed Control (%) Obs, 20 DAA, 4.38 gae/ha) was 60% and the pest or weed control at 8.75 g/ha ([2]; 480 h, read-out: Visual Weed Control (%) Obs, 20 DAA, 8.75 gae/ha) was 75%. It also gave a pest or weed control at 17.5 g/ha ([2]; 480 h, read-out: Visual Weed Control (%) Obs, 20 DAA, 17.5 gae/ha) of 85%, a pest or weed control at 4.38 g/ha ([2]; 504 h, read-out: Visual Weed Control (%) Obs, 21 DAA, 4.38 gae/ha) of 50% and a pest or weed control at 4.38 g/ha ([2]; 504 h, read-out: Visual Weed Control (%) Obs, 21 DAA, 4.38 gae/ha, second series) of 50%. The pest or weed control at 8.75 g/ha ([2]; 504 h, read-out: Visual Weed Control (%) Obs, 21 DAA, 8.75 gae/ha) was 70%, the pest or weed control at 8.75 g/ha ([2]; 504 h, read-out: Visual Weed Control (%) Obs, 21 DAA, 8.75 gae/ha, second series) was 80% and the pest or weed control at 17.5 g/ha ([2]; 504 h, read-out: Visual Weed Control (%) Obs, 21 DAA, 17.5 gae/ha) was 80%. For the same compound, the pest or weed control at 8 g/ha ([2]; 528 h, read-out: Visual Weed Control (%) Obs, 22 DAA, 8 gae/ha) was 50%, the pest or weed control at 16 g/ha ([2]; 528 h, read-out: Visual Weed Control (%) Obs, 22 DAA, 16 gae/ha) was 90% and the pest or weed control at 32 g/ha ([2]; 528 h, read-out: Visual Weed Control (%) Obs, 22 DAA, 32 gae/ha) was 85%.

With `COCC(=O)OC(c1ncccc1S(=O)(=O)NC(=O)Nc1nc(OC)cc(OC)n1)C(C)F` (stereo not shown) [Flucetosulfuron, 1-[3-[[[[(4,6-dimethoxy-2-pyrimidinyl)amino]carbonyl]amino]sulfonyl]-2-pyridinyl]-2-fluoropropyl 2-methoxyacetate] the “Visual Weed Control (%) Obs” value ([4]; 0.05 gai/ha) was 95%, the “Visual Weed Control (%) Obs” value ([4]; 0.1 gai/ha) was 50% and the “Visual Weed Control (%) Obs” value ([4]; 0.2 gai/ha) was 30%. For the same compound, the pest or weed control at 0.05 g/ha ([2]; 504 h, 21 DAA, 0.05 gai/ha, read-out: Visual Weed Control (%) Obs) was 0%, the pest or weed control at 0.1 g/ha ([2]; 504 h, 21 DAA, 0.1 gai/ha, read-out: Visual Weed Control (%) Obs) was 0% and the pest or weed control at 0.2 g/ha ([2]; 504 h, 21 DAA, 0.2 gai/ha, read-out: Visual Weed Control (%) Obs) was 0%. For the same compound, the pest or weed control at 1.7 g/ha ([2]; 528 h, 22 DAA, 1.7 gai/ha, read-out: Visual Weed Control (%) Obs) was 0%.

For `COC(=O)c1ccccc1S(=O)(=O)NC(=O)Nc1nc(C)nc(OC)n1` [Metsulfuron-methyl, methyl 2-[[[[(4-methoxy-6-methyl-1,3,5-triazin-2-yl)amino]carbonyl]amino]sulfonyl]benzoate, reference compound], the pest or weed control at 1.1 g/ha ([3]; Cirsium arvense, post-emergence, Table 56, foliar-applied, after 20-22 days, 1.1 gai/ha alone, read-out: Weed Control CIRAR Obs) was 65%, the pest or weed control at 7.5 g/ha ([2]; 480 h, 20 DAA, 7.5 gai/ha, read-out: Visual Weed Control (%) Obs) was 0% and the pest or weed control at 15 g/ha ([2]; 480 h, 20 DAA, 15 gai/ha, read-out: Visual Weed Control (%) Obs) was 20%.
